ChEMBL document CHEMBL6114961, “Novel isoxazole thiophene-containing compounds active against Mycobacterium tuberculosis” (Bioorg Med Chem Lett, 2025)
Values after ≈ are worked out from the molar mass of the structure shown.

Tests used:
Type in all cases: functional
[1] = system: Mycobacterium tuberculosis; assay: Antituberculosis activity against Mycobacterium tuberculosis Rv1625c mutant assessed as reduction in bacterial growth measured after 7 days using 7H9 broth by Alamar blue staining based analysis; details: time 7 day
[2] = system: Mycobacterium tuberculosis; assay: Antituberculosis activity against Mycobacterium tuberculosis sCHN240 mutant CR1 strain assessed as reduction in bacterial growth
[3] = system: Mycobacterium tuberculosis; assay: Antituberculosis activity against Mycobacterium tuberculosis sCHN240 mutant CR2 strain assessed as reduction in bacterial growth
[4] = system: Mycobacterium tuberculosis; assay: Antituberculosis activity against Mycobacterium tuberculosis sCHN240 mutant CR3 strain assessed as reduction in bacterial growth
[5] = system: Mycobacterium tuberculosis; assay: Antituberculosis activity against Mycobacterium tuberculosis sCHN240 mutant CR5 strain assessed as reduction in bacterial growth
[6] = system: Mycobacterium tuberculosis; assay: Antituberculosis activity against Mycobacterium tuberculosis sCHN240 mutant CR6 strain assessed as reduction in bacterial growth

| Compound | MIC90 [1] | MIC90 [2] | MIC90 [3] | MIC90 [4] | MIC90 [5] | MIC90 [6] |
| --- | --- | --- | --- | --- | --- | --- |
| O=S(=O)(Nc1cc(-c2ccsc2)no1)c1ccccc1F | 19.9 µM (≈ 6.45 µg/mL) | – | – | – | – | – |
| Cn1ncnc1CC(=O)N1CCC(c2nc(-c3ccc(Cl)c(Cl)c3)no2)CC1 | – | >20 µM | >20 µM | >20 µM | >20 µM | >20 µM |
